Experimental data taken from patent US20090030067A1, “Anti-proliferative combination therapy comprising satraplatin or jm118 and a taxane” ((GPC Biotech AG), priority 2005, published 2009).

Columns and labels:
[1] = system: human non small cell lung cancer (NSCLC) cell line H460; assay: H460 xenograft model, satraplatin and docetaxel
[2] = system: human H460 non small cell lung cancer (NSCLC) cell line; assay: H460 xenograft model, satraplatin and paclitaxel
A129 = assay: SRB cytotoxicity assay, parental A129 cell line; format: cell-based; settings: 48 hours, mean and standard deviation
A129 cp80 = assay: SRB cytotoxicity assay, cisplatin-resistant A129 cp80 cell line; format: cell-based
Experimental: The parental non-mutated cell line A129 was used as control.
Briefly, cells were plated in 96 well dishes 24 hours prior to compound addition. The assay was terminated with the addition of cold TCA to a final concentration of 10% and the plates were incubated for one hour at 4° C. The plates were then washed 5 times with water and 100 μl of a Sulforhodamine B solution ([…]) was added to each well. The plate was then incubated for 10 minutes at room temperature before removal of unbound dye by washing with 1% acetic acid. The bound dye was solubilized with 10 mM Trizma base and the absorbance read at OD570.

[3] = satraplatin 35 mg/kg/day po, Exp. B
[4] = satraplatin 40 mg/kg/day po, Exp. B
[5] = satraplatin 50 mg/kg/day po, Exp. A
[6] = paclitaxel 25 mg/kg/day iv, Exp. A
[7] = paclitaxel 25 mg/kg/day iv, Exp. B
[8] = paclitaxel 40 mg/kg/day iv, Exp. A
[9] = paclitaxel 40 mg/kg/day iv, Exp. B
[10] = docetaxel 25 mg/kg iv d7, d14, of 10 animals

Q: How did the “Max % BW loss” value ([1]; satraplatin 25 mg/kg po d8-12, d15-19) turn out when `CC(=O)[O][Pt]([NH2])([Cl])([Cl])([NH]C1CCCCC1)[O]C(C)=O` [Satraplatin, satraplatin] was run?
A: The value was 6.1%.

Q: What about the “Toxic Deaths” value ([1]; satraplatin 25 mg/kg po d8-12, d15-19, of 10 animals) of the same compound?
A: Its value is 0.

Q: What about the “Max % BW loss” value ([1]; satraplatin 35 mg/kg po d8-12, d15-19) of the same compound?
A: Its value is 9.7%.

Q: And the “Toxic Deaths” value ([1]; satraplatin 35 mg/kg po d8-12, d15-19, of 10 animals)?
A: Its value is 1.

Q: What about the “Max % BW loss” value [2, 3] of the same compound?
A: The value was 12%.

Q: What about the Toxic deaths/total [2, 3] of the same compound?
A: Its Toxic deaths/total is 0/10.

Q: What about the “Max % BW loss” value [2, 4] of the same compound?
A: Its value is 16%.

Q: And the Toxic deaths/total [2, 4]?
A: The Toxic deaths/total was 4/10.

Q: What about the “Max % BW loss” value [2, 5] of the same compound?
A: The value was 26%.

Q: What about the Toxic deaths/total [2, 5] of the same compound?
A: The Toxic deaths/total was 9/10.

Q: Which LCK [2, 6] does the source give for `CC(=O)O[C@H]1C(=O)[C@@]2(C)[C@H]([C@H](OC(=O)c3ccccc3)[C@]3(O)C[C@H](OC(=O)[C@H](O)[C@@H](NC(=O)c4ccccc4)c4ccccc4)C(C)=C1C3(C)C)[C@]1(OC(C)=O)CO[C@@H]1C[C@@H]2O` [Paclitaxel, paclitaxel] here?
A: The LCK was 0.6.

Q: And the “Max TGI %” value [2, 6]?
A: The value was 56%.

Q: And the Toxic deaths/total [2, 6]?
A: The Toxic deaths/total was 0/10.

Q: What about the LCK [2, 7] of the same compound?
A: Its LCK is 0.7.

Q: What about the “Max TGI %” value [2, 7] of the same compound?
A: The value was 47%.

Q: What about the Toxic deaths/total [2, 7] of the same compound?
A: The Toxic deaths/total was 0/10.

Q: What about the LCK [2, 8] of the same compound?
A: Its LCK is 0.7.

Q: And the “Max TGI %” value [2, 8]?
A: Its value is 64%.

Q: And the Toxic deaths/total [2, 8]?
A: The Toxic deaths/total was 0/10.

Q: What about the LCK [2, 9] of the same compound?
A: Its LCK is 1.0.

Q: And the “Max TGI %” value [2, 9]?
A: The value was 59%.

Q: And the Toxic deaths/total [2, 9]?
A: The Toxic deaths/total was 0/10.

Q: And the “tumor growth delay equivalent, LCK” value ([2]; paclitaxel 40 mg/kg/day, in two experiments)?
A: The value was 0.7-1.0 LCK.

Q: What about the “tolerability and activity as single agent” value ([2]; paclitaxel at both doses tested, 25 and 40 mg/kg/day) of the same compound?
A: Its value is “tolerated and active”.

Q: `CC(=O)O[C@@]12CO[C@@H]1C[C@H](O)[C@@]1(C)C(=O)[C@H](O)C3=C(C)[C@@H](OC(=O)[C@H](O)[C@@H](NC(=O)OC(C)(C)C)c4ccccc4)C[C@@](O)([C@@H](OC(=O)c4ccccc4)[C@H]21)C3(C)C` [Docetaxel, N-debenzoyl-N-tert-butoxycarbonyl-10-deacetyl paclitaxel] was tested. Which “LCK (Td = 2.7)” value ([1]; docetaxel 25 mg/kg iv d7, d14) did it give?
A: Its value is 0.76.

Q: And the “Max TGI (d)” value ([1]; docetaxel 25 mg/kg iv d7, d14, maximum observed on day 13)?
A: Its value is 64.7 (13) %.

Q: What about the “CR (number of animals with complete tumor regression)” value [1, 10] of the same compound?
A: The value was 0.

Q: What about the Cure [1, 10] of the same compound?
A: The Cure was 0.

Q: And the “PR (number of animals with partial tumor regression)” value [1, 10]?
A: The value was 0.

Q: What about the “Toxic Deaths” value [1, 10] of the same compound?
A: The value was 0.

Q: Which results are given for `N.N.[Cl][Pt][Cl]` [Cisplatin, cisplatin]?
A: IC50 (A129): 0.23 µM; IC50 (A129 cp80; 48 hours, SRB assay, mean and standard deviation): 15.1 µM; RR (relative resistance) (A129 cp80; A129 cp80 versus A129): 80 +/− 25
